Activity calls are given as the source filed them.
Assays:
HOS-TE85 [1] = test: Inhibition of alpha tubulin expression in human MNNG/HOS cells assessed as effect on microtubule network at 0.1 to 0.4 uM by DAPI staining based immunofluorescence microscopic analysis; format: functional, cell-based; conditions: dose 0.1-0.4 µM
[2] = biological target: T1, Platelet-derived growth factor receptor beta (Homo sapiens, UniProt P09619); test: Binding affinity to PDGFRbeta (unknown origin)
MG-63 [3] = test: Antiinvasive activity against human MG-63 cells assessed as expression of FAK by measuring fluorescence at 0.1 to 0.4 uM upto 48 hrs by DAPI staining based immunofluorescence microscopic analysis; format: functional, cell-based; conditions: dose 0.1-0.4 µM
HOS-TE85 [4] = test: Induction of cell cycle arrest in human MNNG/HOS cells assessed as accumulation of cells at G2/M phase incubated for 48 hrs by propidium iodide staining based flow cytometry analysis; format: functional; conditions: dose 0.1-0.4 µM, DDE = dose-dependent effect
HOS-TE85 [5] = test: Inhibition of PDGFRbeta expression in human MNNG/HOS cells incubated for 48 hrs by Western blot analysis; format: functional, cell-based
HOS-TE85 [6] = test: Inhibition of colony formation in human MNNG/HOS cells by crystal violet staining based analysis; format: functional, cell-based; conditions: dose 0.1-0.4 µM, DDE = dose-dependent effect
HOS-TE85 [7] = test: Antiinvasive activity against human MNNG/HOS cells assessed as reduction in cell spreading area upto 48 hrs by DAPI staining based immunofluorescence microscopic analysis; format: functional; conditions: dose 0.1-0.4 µM, DDE = dose-dependent effect
[8] = biological target: T1, Platelet-derived growth factor receptor beta; test: Inhibition of PDGFRbeta in PDGF AA/BB stimulated human MNNG/HOS cells assessed as reduction in fluorescence intensity measured after 48 hrs by DAPI staining based immunofluorescence analysis; format: cell-based; conditions: dose 0.1-0.4 µM, DDE = dose-dependent effect
MG-63 [9] = test: Induction of DNA damage in human MG-63 cells assessed as tail DNA at 0.1 to 0.4 uM measured after 48 hrs by comet assay; format: functional, cell-based; conditions: dose 0.1-0.4 µM
MG-63 [10] = test: Inhibition of cell adhesion in human MG-63 cells at 0.1 to 0.4 uM measured after 48 hrs by crystal violet staining based analysis; format: functional; conditions: dose 0.1-0.4 µM
MG-63 [11] = test: Antimigratory activity against human MG-63 cells assessed as expression of FAK by measuring fluorescence at 0.1 to 0.4 uM upto 48 hrs by DAPI staining based immunofluorescence microscopic analysis; format: functional, cell-based; conditions: dose 0.1-0.4 µM
HOS-TE85 [12] = test: Antimigratory activity against human MNNG/HOS cells assessed as reduction in cell spreading area upto 48 hrs by DAPI staining based immunofluorescence microscopic analysis; format: functional; conditions: dose 0.1-0.4 µM, DDE = dose-dependent effect
[13] = biological target: T1, Platelet-derived growth factor receptor beta; test: Inhibition of PDGFRbeta-mediated downstream signalling in human MNNG/HOS cells assessed as suppression of STAT3 phosphorylation at 0.1 to 0.4 uM measured after 48 hrs by western blot analysis; format: cell-based; conditions: dose 0.1-0.4 µM
HOS-TE85 [14] = test: In vivo inhibition of PDGFRbeta-mediated downstream signalling in human MNNG/HOS cells xenografted in BALB/c nude mouse assessed as phosphorylation of PDGFR in tumor tissue at 15 to 30 mg/kg/day, po for 14 days; format: functional, organism-based; conditions: dose lower […], dose upper 30.0 mg/kg/day, time 14.0 day
HOS-TE85 [15] = test: In vivo inhibition of PDGFRbeta-mediated downstream signalling in human MNNG/HOS cells xenografted in BALB/c nude mouse assessed as phosphorylation of ERK in tumor tissue at 15 to 30 mg/kg/day, po for 14 days; format: functional, organism-based; conditions: dose lower […], dose upper 30.0 mg/kg/day, time 14.0 day
MG-63 [16] = test: Inhibition of alpha tubulin expression in human MG-63 cells assessed as effect on microtubule network at 0.1 to 0.4 uM by DAPI staining based immunofluorescence microscopic analysis; format: functional, cell-based; conditions: dose 0.1-0.4 µM

T1 sequence (P09619 whole entry): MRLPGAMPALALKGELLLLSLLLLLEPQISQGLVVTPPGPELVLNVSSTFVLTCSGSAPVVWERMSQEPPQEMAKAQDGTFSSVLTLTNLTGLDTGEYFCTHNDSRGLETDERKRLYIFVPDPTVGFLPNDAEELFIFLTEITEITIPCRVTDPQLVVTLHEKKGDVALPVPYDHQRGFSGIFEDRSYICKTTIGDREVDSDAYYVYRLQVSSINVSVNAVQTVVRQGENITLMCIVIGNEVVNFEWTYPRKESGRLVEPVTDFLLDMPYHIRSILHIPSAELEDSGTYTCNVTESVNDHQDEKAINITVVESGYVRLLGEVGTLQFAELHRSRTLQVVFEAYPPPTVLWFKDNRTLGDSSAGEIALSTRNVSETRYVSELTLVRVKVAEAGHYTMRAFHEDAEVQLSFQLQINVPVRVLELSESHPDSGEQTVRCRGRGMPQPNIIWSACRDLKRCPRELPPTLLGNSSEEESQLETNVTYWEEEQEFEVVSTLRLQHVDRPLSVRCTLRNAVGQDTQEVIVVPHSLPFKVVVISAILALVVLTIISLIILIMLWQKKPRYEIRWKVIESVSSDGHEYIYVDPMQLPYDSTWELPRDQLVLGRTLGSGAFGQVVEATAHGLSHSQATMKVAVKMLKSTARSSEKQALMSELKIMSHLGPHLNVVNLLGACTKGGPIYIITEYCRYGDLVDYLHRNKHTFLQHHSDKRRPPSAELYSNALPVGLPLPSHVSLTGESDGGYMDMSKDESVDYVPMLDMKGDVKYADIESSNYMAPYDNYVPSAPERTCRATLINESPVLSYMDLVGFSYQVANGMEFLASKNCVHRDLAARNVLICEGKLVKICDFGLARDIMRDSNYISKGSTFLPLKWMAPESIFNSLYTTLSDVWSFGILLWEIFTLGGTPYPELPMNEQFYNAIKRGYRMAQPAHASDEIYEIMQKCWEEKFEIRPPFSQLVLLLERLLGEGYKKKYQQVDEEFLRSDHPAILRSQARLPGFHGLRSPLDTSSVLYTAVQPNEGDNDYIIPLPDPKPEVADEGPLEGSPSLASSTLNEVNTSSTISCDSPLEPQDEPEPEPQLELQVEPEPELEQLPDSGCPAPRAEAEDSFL

CCN1CCN(c2ccc(Nc3ncc(C)c(Nc4ccc5cn[nH]c5c4)n3)cc2OC)CC1
active: inhibition (HOS-TE85 [1]) | Activity [2] | Activity (MG-63 [3]) | Activity (HOS-TE85 [4]) Dde | inhibition (HOS-TE85 [5]) | inhibition (HOS-TE85 [6]) Dde | Activity (HOS-TE85 [7]) Dde | inhibition [8] Dde | Activity (MG-63 [9]) | inhibition (MG-63 [10]) | Activity (MG-63 [11]) | Activity (HOS-TE85 [12]) Dde | inhibition [13] | inhibition (HOS-TE85 [14]) | inhibition (HOS-TE85 [15]) | inhibition (MG-63 [16])
